Measurements reported in patent US20250108038A1 (priority 2023, published 2025).
Several values for one entry are separate records, joined by “and”; a condition that tells them apart may be missing. Equal values may be shown once.

Tested on: Long Evans rats
Test: Behavioral satiety sequence (BSS)
Format: in vivo, Long Evans rat
From the text: The Behavioural Satiety Sequence (BSS) is a technique used to evaluate physiological satiety. It is based on the expression of a sequence of behaviors including eating, grooming, locomotor activity, followed by resting, which are typically observed in rodents post-ingestion (Halford et al, 1998, Pharmacology Biochemistry and Behaviour. 61(2): 159-168). The BSS is a widely used model for determining the effects of novel pharmaceuticals on food intake and measures of satiety in rodents (Oliveira et al, 2011, Revista de Nutrição. 24(4) 619-628), and to discriminate the cause of reduced food intake following pharmacological manipulation. For example, treatments that may reduce food intake by non-specific mechanisms, such as immobility, malaise, and taste adulteration, will disrupt this sequence (Halford et al, 1998, Pharmacology Biochemistry and Behaviour. 61(2): 159-168).
Specifically, 12 male Long-Evans rats were food-deprived for 22 h with a 2 h feeding period each day. Rats were trained to consume daily food during the 2 h period over 25 days. The testing phase was initiated once the rats consistently consumed 16-18 g of food per day with ≤10% variance in amount of feed consumed. Feeding took place in designated individual boxes in a quiet room separate from the housing room. Continuous remote monitoring via video camera during feeding was used to assess the BSS. Food consumption was measured by weighing the total available food before and after the 2 h feeding window, correcting for spillage. Lorcaserin (1 mg/kg) was included as a reference control (Higgins et al, 2011, Neuropsychopharmacology. 37(5): 1177-1191). Subjects were tested using a repeated-measures, Latin square design with 2-3 days wash-out between treatment cycles.
On scheduled test days, animals were monitored remotely via video camera during the feeding access period. The occurrence of four mutually exclusive behaviors (eating/drinking, grooming, active, rest) were individually scored. Over the 2 h feeding period, behaviors were assessed every 30 seconds. Scores were compiled into 23 5 min timebins (timebin 24 was removed due to early removal of animals) and the frequency of each behavior within each timebin was calculated to determine a temporal frequency of each measure (Rodgers et al, 2010, Pharmacology Biochemistry and Behaviour. 97: 3-14). Percentage time was plotted for each behavioral sequence in each timebin to compare between treatment groups (Higgins et al, 2011, Neuropsychopharmacology. 37(5): 1177-1191).

[1] = Compound I-19 3 mg/kg i.p., raw score per animal
[2] = Compound I-19 3 mg/kg, AVG of 12 animals
[3] = Compound I-19 3 mg/kg, raw score of individual animals LT-1 to LT-12
[4] = Compound I-19 i.p., first dose group after lorcaserin (dose not given), raw score per animal

Clc1ccc(C2(OCC3OCCO3)c3ccccc3C3=NCCN32)cc1 (stereo not shown) [Compound I-19]
BSS scoring R (resting), Time Bin 4 (15-20 TOTAL) [1]: 1 (2×) and 0 (10×) | BSS scoring R (resting), Time Bin 5 (20-25 TOTAL) [1]: 0 (10×) and 1 (2×) | BSS scoring R (resting), Time Bin 6 (25-30 TOTAL) [1]: 0 (9×) and 1 and 2 (2×) | BSS scoring A (active), Time Bin 13 (60-65 TOTAL), AVG [2]: 0.18 | BSS scoring A (active), Time Bin 14 (65-70 TOTAL), AVG [2]: 0.15 | BSS scoring A (active), Time Bin 15 (70-75 TOTAL), AVG [2]: 0.28 | BSS scoring A (active), Time Bin 16 (75-80 TOTAL), AVG [2]: 0.03 | BSS scoring A (active), Time Bin 17 (80-85 TOTAL), AVG [2]: 0.18 | BSS scoring A (active), Time Bin 18 (85-90 TOTAL), AVG [2]: 0.12 | BSS scoring E (eating/drinking), Time Bin 13 (60-65 TOTAL), AVG [2]: 0.72 | BSS scoring E (eating/drinking), Time Bin 14 (65-70 TOTAL), AVG [2]: 0.63 | BSS scoring E (eating/drinking), Time Bin 15 (70-75 TOTAL), AVG [2]: 0.53 | BSS scoring E (eating/drinking), Time Bin 16 (75-80 TOTAL), AVG [2]: 0.71 | BSS scoring E (eating/drinking), Time Bin 17 (80-85 TOTAL), AVG [2]: 0.63 | BSS scoring E (eating/drinking), Time Bin 18 (85-90 TOTAL), AVG [2]: 0.65 | BSS scoring G (grooming), Time Bin 13 (60-65 TOTAL), AVG [2]: 0.02 | BSS scoring G (grooming), Time Bin 14 (65-70 TOTAL), AVG [2]: 0.02 | BSS scoring G (grooming), Time Bin 15 (70-75 TOTAL), AVG [2]: 0.06 | BSS scoring G (grooming), Time Bin 16 (75-80 TOTAL), AVG [2]: 0.05 | BSS scoring G (grooming), Time Bin 17 (80-85 TOTAL), AVG [2]: 0.03 | BSS scoring G (grooming), Time Bin 18 (85-90 TOTAL), AVG [2]: 0.07 | BSS scoring R (resting), Time Bin 13 (60-65 TOTAL), AVG [2]: 0.09 | BSS scoring R (resting), Time Bin 14 (65-70 TOTAL), AVG [2]: 0.21 | BSS scoring R (resting), Time Bin 15 (70-75 TOTAL), AVG [2]: 0.13 | BSS scoring R (resting), Time Bin 16 (75-80 TOTAL), AVG [2]: 0.22 | BSS scoring R (resting), Time Bin 17 (80-85 TOTAL), AVG [2]: 0.17 | BSS scoring R (resting), Time Bin 18 (85-90 TOTAL), AVG [2]: 0.17 | BSS scoring A (active), Time Bin 13 (60-65 TOTAL) [3]: 3 and 0 (3×) and 2 (4×) and 1 (2×) and 4 (2×) | BSS scoring A (active), Time Bin 14 (65-70 TOTAL) [3]: 8 and 0 (5×) and 1 (5×) and 5 | BSS scoring A (active), Time Bin 15 (70-75 TOTAL) [3]: 3 (2×) and 0 (5×) and 5 (3×) and 4 and 9 | BSS scoring A (active), Time Bin 16 (75-80 TOTAL) [3]: 0 (10×) and 1 and 2 | BSS scoring A (active), Time Bin 17 (80-85 TOTAL) [3]: 0 (6×) and 8 and 2 and 3 and 4 (2×) and 1 | BSS scoring A (active), Time Bin 18 (85-90 TOTAL) [3]: 0 (7×) and 2 and 3 (2×) and 1 and 5 | BSS scoring E (eating/drinking), Time Bin 13 (60-65 TOTAL) [3]: 6 (3×) and 8 (4×) and 7 and 9 and 10 (2×) and 0 | BSS scoring E (eating/drinking), Time Bin 14 (65-70 TOTAL) [3]: 2 (2×) and 8 (2×) and 9 (3×) and 10 and 3 (2×) and 7 and 5 | BSS scoring E (eating/drinking), Time Bin 15 (70-75 TOTAL) [3]: 7 (3×) and 9 and 8 and 5 (2×) and 0 (3×) and 6 and 10 | BSS scoring E (eating/drinking), Time Bin 16 (75-80 TOTAL) [3]: 10 (4×) and 8 (3×) and 3 and 0 and 2 and 9 and 7 | BSS scoring E (eating/drinking), Time Bin 17 (80-85 TOTAL) [3]: 7 and 2 and 8 and 10 (4×) and 0 (2×) and 3 and 6 and 9 | BSS scoring E (eating/drinking), Time Bin 18 (85-90 TOTAL) [3]: 10 (4×) and 8 (2×) and 5 (2×) and 0 (2×) and 9 and 3 | BSS scoring G (grooming), Time Bin 13 (60-65 TOTAL) [3]: 1 (2×) and 0 (10×) | BSS scoring G (grooming), Time Bin 14 (65-70 TOTAL) [3]: 0 (11×) and 2 | BSS scoring G (grooming), Time Bin 15 (70-75 TOTAL) [3]: 0 (8×) and 1 (3×) and 4 | BSS scoring G (grooming), Time Bin 16 (75-80 TOTAL) [3]: 0 (8×) and 1 (3×) and 3 | BSS scoring G (grooming), Time Bin 17 (80-85 TOTAL) [3]: 0 (10×) and 1 and 2 | BSS scoring G (grooming), Time Bin 18 (85-90 TOTAL) [3]: 0 (8×) and 4 and 1 (2×) and 2 | BSS scoring R (resting), Time Bin 13 (60-65 TOTAL) [3]: 0 (8×) and 2 (2×) and 1 and 6 | BSS scoring R (resting), Time Bin 14 (65-70 TOTAL) [3]: 0 (4×) and 2 (3×) and 1 (2×) and 6 and 7 and 4 | BSS scoring R (resting), Time Bin 15 (70-75 TOTAL) [3]: 0 (8×) and 2 and 5 (2×) and 3 | BSS scoring R (resting), Time Bin 16 (75-80 TOTAL) [3]: 0 (4×) and 1 (4×) and 3 and 9 and 2 and 8 | BSS scoring R (resting), Time Bin 17 (80-85 TOTAL) [3]: 3 (2×) and 0 (7×) and 1 and 8 and 5 | BSS scoring R (resting), Time Bin 18 (85-90 TOTAL) [3]: 0 (7×) and 2 (2×) and 6 and 9 and 1 | effect on the behavioral satiety sequence (BSS) (Compound I-19 0.1-3 mg/kg IP, lorcaserin 1 mg/kg SC): did not affect the BSS compared to vehicle pretreatment | BSS scoring A (active), Time Bin 7 (30-35 TOTAL) [4]: 2 and 0 | BSS scoring A (active), Time Bin 8 (35-40 TOTAL) [4]: 2 and 0 | BSS scoring A (active), Time Bin 9 (40-45 TOTAL) [4]: 1 and 2 | BSS scoring A (active), Time Bin 10 (45-50 TOTAL) [4]: 1 | BSS scoring A (active), Time Bin 11 (50-55 TOTAL) [4]: 1 and 0 | BSS scoring A (active), Time Bin 12 (55-60 TOTAL) [4]: 1 and 2 | BSS scoring E (eating/drinking), Time Bin 7 (30-35 TOTAL) [4]: 6 and 9 | BSS scoring E (eating/drinking), Time Bin 8 (35-40 TOTAL) [4]: 6 and 9 | BSS scoring E (eating/drinking), Time Bin 9 (40-45 TOTAL) [4]: 9 and 6 | BSS scoring E (eating/drinking), Time Bin 10 (45-50 TOTAL) [4]: 7 | BSS scoring E (eating/drinking), Time Bin 11 (50-55 TOTAL) [4]: 8 and 10 | BSS scoring E (eating/drinking), Time Bin 12 (55-60 TOTAL) [4]: 5 and 8 | BSS scoring G (grooming), Time Bin 7 (30-35 TOTAL) [4]: 0 and 1 | BSS scoring G (grooming), Time Bin 8 (35-40 TOTAL) [4]: 1 | BSS scoring G (grooming), Time Bin 9 (40-45 TOTAL) [4]: 0 and 1 | BSS scoring G (grooming), Time Bin 10 (45-50 TOTAL) [4]: 1 | BSS scoring G (grooming), Time Bin 11 (50-55 TOTAL) [4]: 0 | BSS scoring G (grooming), Time Bin 12 (55-60 TOTAL) [4]: 1 and 0 | BSS scoring R (resting), Time Bin 7 (30-35 TOTAL) [4]: 2 and 0 | BSS scoring R (resting), Time Bin 8 (35-40 TOTAL) [4]: 1 and 0 | BSS scoring R (resting), Time Bin 9 (40-45 TOTAL) [4]: 0 and 1 | BSS scoring R (resting), Time Bin 10 (45-50 TOTAL) [4]: 1 | BSS scoring R (resting), Time Bin 11 (50-55 TOTAL) [4]: 1 and 0 | BSS scoring R (resting), Time Bin 12 (55-60 TOTAL) [4]: 3 and 0
